According to US6376553B1, “Treatment of pain” (Knoll Pharmaceutical Company, priority 1999, dated 2002):

Target: [3H]Noradenaline reuptake (Rattus norvegicus, UniProt Q9WTR4)
Assay: biochemical

[3H]Noradenaline reuptake, sequence (Q9WTR4 1-597): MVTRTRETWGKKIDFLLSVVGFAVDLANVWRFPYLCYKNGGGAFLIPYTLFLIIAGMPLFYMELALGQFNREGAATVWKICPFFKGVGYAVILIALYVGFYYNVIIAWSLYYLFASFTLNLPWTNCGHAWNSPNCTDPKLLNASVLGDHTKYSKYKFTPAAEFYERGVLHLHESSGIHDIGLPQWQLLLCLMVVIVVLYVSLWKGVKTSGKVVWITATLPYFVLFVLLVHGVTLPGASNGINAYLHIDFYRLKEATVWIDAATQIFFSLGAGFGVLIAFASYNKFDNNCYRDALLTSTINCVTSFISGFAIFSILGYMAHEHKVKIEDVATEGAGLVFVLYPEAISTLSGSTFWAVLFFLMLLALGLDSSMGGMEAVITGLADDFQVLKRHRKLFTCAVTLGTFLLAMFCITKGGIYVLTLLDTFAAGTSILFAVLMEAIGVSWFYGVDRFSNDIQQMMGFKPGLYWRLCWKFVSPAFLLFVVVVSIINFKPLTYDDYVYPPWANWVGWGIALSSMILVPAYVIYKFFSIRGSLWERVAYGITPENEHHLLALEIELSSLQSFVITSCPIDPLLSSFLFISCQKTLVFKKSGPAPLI

For `CC(NC(C)(C)C)C(=O)c1cccc(Cl)c1` (stereo not shown) [Bupropion], the Ki was 2.59 µM.
